Data taken from article PMC10846744, “Cathelicidin peptide analogues inhibit EV71 infection through blocking viral entry and uncoating” (PLOS Pathogens, 2024).
Where no end group is shown, it is not given here.

What was measured:
EV71 virus [1] = assay: 1H NMR titration of peptide with EV71 virus; type: binding, enterovirus 71 (EV71); settings: molar ratio peptide to virus 90:1, 800 MHz, 298k
Experimental: (§1) The NMR titrations were performed on a Bruker 800 MHz (Avance NEO) spectrometer equipped with cryo-probe. The molar ratio of the peptide to the virus was 90:1. The experiments were recorded using zgespg pulse for 128 scans at 298k and the results were analyzed by Topspin.

CVB5 virus = assay: 1H NMR titration of peptide with CVB5 virus; type: binding, coxsackievirus B5; settings: molar ratio peptide to virus 90:1, 800 MHz, 298k
Experimental: as §1

[2] = test system: mouse-adapted EV71 (mEV71); assay: mEV71 infection inhibition in RD cells; type: cell-based, enterovirus 71 (EV71); settings: mEV71 pre-incubated with LL-18 1 hr, titer 24 h.p.i (S5B Fig)
Experimental: Supplementary file ppat.1011967.s005.tif: S5 Fig LL-18 inhibits mEV71 infection in vivo. (A) 6-day-old ICR mice were infected with parental EV71 or mouse-adapted virus (mEV71) and the mice survival rate was determined. (B) RD cells infected with mEV71 pre-incubated with PBS or LL-18 for 1 hr were determined for virus titer 24 h.p.i. ***, P<0.001. (C) ICR mice infected with mEV71 or mEV71 pre-incubated with the indicated amount of LL-18 were sacrificed at 1 d.p.i. and viral titers from muscle were determined. ns, not significant; ***, P<0.001. (TIF) Click here for additional data file.

EV71 virus [3] = assay: Time-of-addition study; type: cell-based, enterovirus 71 (EV71)
Experimental: (§2) Fig 2 LL-18 and FF-18 inhibit EV71 infection at the early stages of infection. (A-B) NanoLuc-EV71 reporter virus (A) or EV71 virus (MOI = 1, B) was pre-incubated with 1.5 μM LL-18 or FF-18 for 1 hr before they were used to infect RD cells. Luciferase (A) or viral RNA (B) was determined at indicated time points. Viral RNAs were normalized to mock treated cells at 1 h.p.i. ***, P<0.001. (C-E) EV71 virus (MOI = 1) was either pre-incubated with 1.5 μM LL-18 before infection (-2 and -1 time points), added simultaneously with LL-18 (0 time point) or LL-18 was added at indicated time points post-infection (1, 2, 4, 7 time points) and viral VP1 expression (C), cell viability (D), or viral titer (E) was determined 24 h.p.i. ns, not significant; **, P<0.01; ***, P<0.001. (F-H) EV71 virus (MOI = 1) was either pre-incubated with 1.5 μM FF-18 before infection (-2 and -1 time points), added simultaneously with FF-18 (0 time point) or FF-18 was added at indicated time points post-infection (1, 2, 4, 7 time points) and viral VP1 expression (F), cell viability (G), or viral titer (H) was determined 24 h.p.i. ns, not significant; **, P<0.01; ***, P<0.001.
Synthetic peptides were purchased from Bioyears Co. Ltd. (Wuhan, China) with purity of more than 95% and dissolved in PBS. […] Cell viability, viral titer, or viral protein expression was determined 24 h.p.i. […]

EV71 virions = assay: Viral particle ultracentrifugation (uncoating with SCARB2 at pH 5.5); design: species or system enterovirus 71 (EV71); settings: EV71 MOI = 10, 1.5 μg SCARB2, pH 5.5, 37°C 2 hrs, iodoxanol gradient ultracentrifugation, immunoblotting
Experimental: Fig 6 LL-18 stabilizes the viral particles by inhibiting uncoating. (A) EV71 virus (MOI = 10) was pre-incubated with PBS, indicated amount of LL-18 or NaCl for 1 hr and then mixed with SYBR green dyes II before they were heated to indicated temperatures. The fluorescent signals were measured and plotted against temperature. PBS was used as a negative control. (B) EV71 virus (MOI = 10) was pre-incubated with PBS, LL-18, or 12s for 2 hrs. Half of the samples were then treated with 1.5 μg SCARB2 protein and incubated at 37°C for 2 hrs at pH 5.5. Samples were then subjected to ultracentrifugation as detailed in materials and methods. The numbers above represent the fractions collected from top to bottom.
EV71 viruses were pre-incubated with either PBS, 12s, or LL-18 for 1 hr. Then half the samples were treated with 1.5 μg purified SCARB2 protein (Sino Biological, China) with pH adjusted to 5.5. The samples were incubated at 37°C for 2 hrs to simulate the virus uncoating environment. Viral particles were then loaded onto iodoxanol gradients (0% 500 μL, 21% 1 mL, 27% 1 mL, 33% 1 mL, 39% 1 mL) and ultra-centrifuged at 4°C, 45000 rpm for 1.5 hrs. 7 fractions were collected from the top, and samples were precipitated with Trichloroacetic acid (TCA) before being analyzed with immunoblotting.

[4] = test system: NanoLuc-EV71 reporter virus / EV71 virus; assay: NanoLuc-EV71 reporter virus luciferase and viral RNA time course; type: cell-based, enterovirus 71 (EV71); settings: 1.5 μM peptide pre-incubated with virus 1 hr, RD cells, luciferase at time points
Experimental: as §2
Full-length NanoLuc-EV71 reporter viruses and subgenomic EV71 replicon (SGR) were described previously. […] Nano luciferase and Renilla luciferase were measured with Nano-Glo or Renilla luciferase assay system from Promega (Madison, WI). […]

Sequence	interaction of peptide with EV71 virus by 1H 1D NMR (amide region) (EV71 virus [1])	interaction of peptide with CVB5 virus by 1H 1D NMR (amide region) (CVB5 virus)	inhibition of mEV71 infection in RD cells (virus titer) [2]	inhibition of VP1 expression, virus-induced cell death, virus titer; peptide added after virus infection (EV71 virus [3])	inhibition of VP1 expression, virus-induced cell death, virus titer; peptide added before virus infection (EV71 virus [3])	inhibition of uncoating (VP1 distribution in density gradient fractions) (EV71 virions)	inhibition of NanoLuc expression of NanoLuc-EV71 reporter virus [4]
FRKSKEKIGKLFKRIVQRILDFLRNLV [LL-18]	chemical shift perturbation with multiple new peaks was observed	little effect on the spectra of peptides	could still inhibit the infection of this mEV71 strain in RD cells	little inhibition	Potent inhibition	remained in the higher density fractions	could inhibit the expression of NanoLuc as early as 4 hrs post-infection
FRKSKEKIGKFFKRIVQRIFDFLRNLV [FF-18]							could inhibit the expression of NanoLuc as early as 4 hrs post-infection
